Counter-ions that a name gives are not always drawn.

Data on 24 compounds can be found in patent US7601716B2, “Pyridopyrazines and derivatives thereof as ALK and c-Met inhibitors” (Cephalon, Inc., priority 2006, dated 2009).

Test [1] deals with T1, c-Met (cytoplasmic domain) (Homo sapiens, UniProt P08581).
T1 construct: Reactions were initiated with 30 ng/mL c-Met (cytoplasmic domain, Invitrogen Corporation #PV3143); purchased Invitrogen Corporation PV3143
The test is described as follows: c-Met Kinase Assay (ELISA/TRF, PLC-γ substrate). The format is biochemical. Conditions: 3 μM ATP (Km level); read-out: c-Met Kinase Inhibition (IC50). Here is the method: Example compounds were tested for their ability to inhibit the kinase activity of baculovirus-expressed ALK using a modification of the ELISA protocol reported for trkA in Angeles, T. S. et al., Anal. Biochem. 1996, 236, 49-55, which is incorporated herein by reference in its entirety. Phosphorylation of the substrate, phospholipase C-gamma (PLC-γ) generated as a fusion protein with glutathione S-transferase (GST) as reported in Rotin, D. et al., EMBO J. 1992, 11, 559-567, which is incorporated herein by reference in its entirety, was detected with a europium-labeled anti-phosphotyrosine antibody and measured by time-resolved fluorescence (TRF). Briefly, each 96-well plate was coated with 100 μL/well of 10 μg/mL substrate (phospholipase C-γ) in Tris-buffered saline (TBS). […] The reaction was initiated by adding enzyme (30 ng/ml ALK) and was allowed to proceed at 37° C. for 15 minutes. Detection of the phosphorylated product was performed by adding 100 μl/well of Eu-N1 labeled PT66 antibody (Perkin Elmer # AD0041). Incubation at 37° C. then proceeded for one (1) hour, followed by addition of 100 μL enhancement solution (Wallac #1244-105). The plate was gently agitated and after thirty minutes, the fluorescence of the resulting solution was measured using the EnVision 2100 (or 2102) multilabel plate reader (Perkin Elmer).
Data analysis was performed using ActivityBase (IDBS, Guilford, UK). IC50 values were calculated by plotting percent inhibition versus log10 of the concentration of compound and fitting to the nonlinear regression sigmoidal dose-response (variable slope) equation in XLFit (IDBS, Guilford, UK).
Reactions were initiated with 30 ng/mL c-Met (cytoplasmic domain, Invitrogen Corporation #PV3143).

Test [2] has as its target baculovirus-expressed ALK (Homo sapiens, UniProt Q9UM73). As to the kind of experiment: ALK Kinase Assay (ELISA/TRF, PLC-γ substrate). Also: 1 µM ATP (Km level). Conditions: read-out: ALK Kinase Inhibition (IC50). In kind it is biochemical. In outline: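 GST-PLC-γ coat 10 μg/mL/TBS; 30 ng/ml ALK, 37° C, 15 min; Eu-PT66 anti-pTyr 1 h 37° C, enhancement, TRF. IC50: % inhib vs log10[cpd], variable-slope sigmoid.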

T1 sequence (P08581 956-1390 limits assumed): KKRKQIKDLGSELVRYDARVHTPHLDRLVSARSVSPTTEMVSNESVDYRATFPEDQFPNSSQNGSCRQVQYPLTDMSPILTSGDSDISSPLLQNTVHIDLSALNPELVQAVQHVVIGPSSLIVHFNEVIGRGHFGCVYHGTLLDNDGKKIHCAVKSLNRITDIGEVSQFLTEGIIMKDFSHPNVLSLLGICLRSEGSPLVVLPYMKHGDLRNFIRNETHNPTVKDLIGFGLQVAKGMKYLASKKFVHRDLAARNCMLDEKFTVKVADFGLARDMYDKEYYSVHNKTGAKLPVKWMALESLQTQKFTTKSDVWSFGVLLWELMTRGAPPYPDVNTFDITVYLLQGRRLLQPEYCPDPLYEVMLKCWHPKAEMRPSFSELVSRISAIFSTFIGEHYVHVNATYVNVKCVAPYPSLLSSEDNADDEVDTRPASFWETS
Sequence of baculovirus-expressed ALK (Q9UM73 19-1620): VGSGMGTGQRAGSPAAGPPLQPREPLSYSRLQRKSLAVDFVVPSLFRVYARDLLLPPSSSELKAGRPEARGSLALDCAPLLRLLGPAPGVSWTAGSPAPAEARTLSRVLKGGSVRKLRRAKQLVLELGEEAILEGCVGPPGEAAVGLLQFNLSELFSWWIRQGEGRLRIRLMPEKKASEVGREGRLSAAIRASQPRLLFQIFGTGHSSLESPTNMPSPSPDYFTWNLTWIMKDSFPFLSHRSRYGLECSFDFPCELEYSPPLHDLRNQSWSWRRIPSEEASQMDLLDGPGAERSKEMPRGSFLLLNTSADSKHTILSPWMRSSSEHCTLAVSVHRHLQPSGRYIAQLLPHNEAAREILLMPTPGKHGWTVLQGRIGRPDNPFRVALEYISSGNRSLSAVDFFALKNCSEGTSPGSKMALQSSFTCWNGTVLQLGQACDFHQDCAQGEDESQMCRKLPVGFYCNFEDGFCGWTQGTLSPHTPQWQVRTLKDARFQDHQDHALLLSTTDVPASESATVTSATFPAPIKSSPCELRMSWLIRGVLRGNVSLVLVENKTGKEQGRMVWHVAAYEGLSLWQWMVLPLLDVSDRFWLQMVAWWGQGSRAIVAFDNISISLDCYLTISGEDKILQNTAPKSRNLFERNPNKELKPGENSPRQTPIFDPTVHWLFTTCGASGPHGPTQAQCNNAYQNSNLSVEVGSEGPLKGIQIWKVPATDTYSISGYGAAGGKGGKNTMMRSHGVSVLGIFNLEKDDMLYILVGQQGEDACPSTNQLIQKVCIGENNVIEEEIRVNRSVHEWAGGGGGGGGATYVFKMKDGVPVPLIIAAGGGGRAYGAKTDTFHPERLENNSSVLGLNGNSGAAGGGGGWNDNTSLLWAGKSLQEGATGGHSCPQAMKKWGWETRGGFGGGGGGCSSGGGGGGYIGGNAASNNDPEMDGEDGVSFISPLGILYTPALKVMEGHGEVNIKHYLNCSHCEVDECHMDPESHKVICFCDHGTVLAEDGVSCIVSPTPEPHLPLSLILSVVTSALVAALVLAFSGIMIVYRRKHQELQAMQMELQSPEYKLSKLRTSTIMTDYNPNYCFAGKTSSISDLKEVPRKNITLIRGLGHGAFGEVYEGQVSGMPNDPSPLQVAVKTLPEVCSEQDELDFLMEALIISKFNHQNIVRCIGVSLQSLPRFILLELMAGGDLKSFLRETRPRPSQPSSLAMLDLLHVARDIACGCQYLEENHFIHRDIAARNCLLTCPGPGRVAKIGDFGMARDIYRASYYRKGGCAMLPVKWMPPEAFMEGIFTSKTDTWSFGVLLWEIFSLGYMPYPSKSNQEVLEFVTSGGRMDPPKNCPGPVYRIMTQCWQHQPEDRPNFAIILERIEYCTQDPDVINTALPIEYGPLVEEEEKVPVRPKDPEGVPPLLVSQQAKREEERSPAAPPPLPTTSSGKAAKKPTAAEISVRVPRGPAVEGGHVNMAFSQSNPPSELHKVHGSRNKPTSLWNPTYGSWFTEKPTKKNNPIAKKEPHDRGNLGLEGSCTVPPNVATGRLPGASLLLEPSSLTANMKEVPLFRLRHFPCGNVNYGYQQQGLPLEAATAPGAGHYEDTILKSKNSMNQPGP

With `Clc1cccc(OC2CCNc3ncc(-c4cccc(N5CCOCC5)c4)cc32)c1` (stereo not drawn) [Example 279, 4-(3-Chlorophenoxy)-6-(3-morpholin-4-yl-phenyl)-1,2,3,4-tetrahydro-[1,8]naphthyridine], the IC50 in test [1] fell in the range of 10 to 100 µM; in test [2] it was 1 to 10 µM.

Turning to `O=C(c1cnc2c(c1)N(Cc1cc(Cl)ccc1Cl)CCN2)N1CCN(c2ccc(Cl)c(Cl)c2)CC1` [Example 213, [1-(2,5-Dichlorobenzyl)-1,2,3,4-tetrahydropyrido[2,3-b]pyrazin-7-yl]-[4-(3,4-dichlorophenyl)-piperazin-1-yl]methanone], the values for the IC50 in test [1] and in test [2] were 10 to 100 µM and 1 to 10 µM, respectively.

Turning to `O=C(c1ccc(-c2cnc3ncc(=O)n(Cc4ccccc4)c3c2)cc1)N1CCC(N2CCCC2)CC1` [Example 17, 1-Benzyl-7-[4-(4-(pyrrolidin-1-yl)piperidine-1-carbonyl)phenyl]-1H-pyrido[2,3-b]pyrazin-2-one, trifluoroacetic acid salt], the IC50 in test [1] and in test [2] was 10 to 100 µM throughout.

For the compound `CN1CCN(c2ccc(-c3cnc4c(c3)N(S(=O)(=O)c3ccccc3)CCN4)cn2)CC1` [Example 125, 1-Benzenesulfonyl-7-[6-(4-methylpiperazin-1-yl)pyridin-3-yl]-1,2,3,4-tetrahydropyrido[2,3-b]pyrazine], the results for the IC50 in test [1] and in test [2] were 10 to 100 µM and 0.1 to 1 µM, respectively.

As to `CC(c1cc(F)c(F)cc1F)N1C(=O)CNc2ncc(I)cc21` (stereo not drawn) [Example 145, 7-Iodo-1-[1-(2,4,5-trifluorophenyl)ethyl]-3,4-dihydro-1H-pyrido[2,3-b]pyrazin-2-one], the IC50 in test [1] and in test [2] was > 100 µM each time.

On to `O=C(c1cnc2c(c1)N(Cc1cc(Cl)ccc1Cl)CCN2)N1CCC(n2c(=O)[nH]c3ccccc32)CC1` [Example 209, 1-{1-[1-(2,5-Dichlorobenzyl)-1,2,3,4-tetrahydropyrido[2,3-b]pyrazine-7-carbonyl]piperidin-4-yl}-1,3-dihydrobenzoimidazol-2-one], for which the IC50 in test [1] lay within 10 to 100 µM; in test [2], 1 to 10 µM.

Turning to `O=C(c1ccc(-c2cnc3c(c2)N(Cc2ccccc2)C(=O)CN3)cc1)N1CCC(N2CCCC2)CC1` [Example 26, 1-Benzyl-7-[4-(4-(pyrrolidin-1-yl)piperidine-1-carbonyl)phenyl]-3,4-dihydro-1H-pyrido[2,3-b]pyrazin-2-one, trifluoroacetic acid salt], the IC50 in test [1] fell in the range of 10 to 100 µM; in test [2] it was 1 to 10 µM.

Turning to `CC(c1c(F)ccc(F)c1Cl)N1C(=O)CNc2ncc(I)cc21` (stereo not drawn) [Example 175, 1-[1-(2-Chloro-3,6-difluorophenyl)ethyl]-7-iodo-3,4-dihydro-1H-pyrido[2,3-b]pyrazin-2-one], the IC50 in test [1] and in test [2] was > 100 µM in each case.

As to `O=C(c1ccc(-c2cnc3c(c2)N(Cc2cccnc2Cl)CCN3)cc1)N1CCC(N2CCCC2)CC1` [Example 303, {4-[1-(2-Chloropyridin-3-ylmethyl)-1,2,3,4-tetrahydropyrido[2,3-b]pyrazin-7-yl]phenyl}-(4-pyrrolidin-1-yl-piperidin-1-yl)methanone], the IC50 in test [1] and in test [2] was > 100 µM each time.

As to `O=C(c1cnc2c(c1)N(Cc1cc(Cl)ccc1Cl)CCN2)N1CCN(c2nccc3occc23)CC1` [Example 220, [1-(2,5-Dichlorobenzyl)-1,2,3,4-tetrahydropyrido[2,3-b]pyrazin-7-yl]-(4-furo[3,2-c]pyridin-4-yl-piperazin-1-yl)methanone], the IC50 in test [1] and in test [2] was 1 to 10 µM throughout.

As for `O=C1CNc2ncc(-c3ccc(NS(=O)(=O)CCN4CCC[C@H]4CN4CCCC4)cc3)cc2N1Cc1cc(F)ccc1F` [Example 49], the IC50 in test [1] is 10 to 100 µM; in test [2] it was 0.1 to 1 µM.

In the case of `O=C(c1cnc2c(c1)N(Cc1cc(Cl)ccc1Cl)CCN2)N1CCN(c2ccc(Cl)cc2)CC1` [Example 250, [4-(4-Chlorophenyl)piperazin-1-yl]-[1-(2,5-dichlorobenzyl)-1,2,3,4-tetrahydropyrido[2,3-b]pyrazin-7-yl]methanone], the IC50 in test [1] was > 100 µM; in test [2], 0.1 to 1 µM.

Turning to `CC(c1cc(F)c(F)cc1F)N1CCNc2ncc(-c3ccc(C(=O)N4CCN(C)CC4)cc3)cc21` (stereo not drawn) [Example 149, (4-Methylpiperazin-1-yl)-(4-{1-[1-(2,4,5-trifluorophenyl)ethyl]-1,2,3,4-tetrahydropyrido[2,3-b]pyrazin-7-yl}phenyl)methanone], the IC50 in test [1] and in test [2] was > 100 µM throughout.

Regarding `CCOC(=O)N1CCC(NC(=O)c2cnc3c(c2)N(Cc2cc(Cl)ccc2Cl)CCN3)CC1` [Example 224, 4-{[1-(2,5-Dichlorobenzyl)-1,2,3,4-tetrahydropyrido[2,3-b]pyrazine-7-carbonyl]amino}piperidine-1-carboxylic acid ethyl ester], the IC50 was in the range of 10 to 100 µM in test [1] and 1 to 10 µM in test [2].

Regarding `O=C(NCc1ccc(OC(F)(F)F)cc1)c1cnc2c(c1)N(Cc1cc(Cl)ccc1Cl)CCN2` [Example 230, 1-(2,5-Dichlorobenzyl)-1,2,3,4-tetrahydropyrido[2,3-b]pyrazine-7-carboxylic acid 4-(trifluoromethoxy)benzylamide], the IC50 in test [1] is > 100 µM; in test [2] it was 1 to 10 µM.

Regarding `FC(F)(F)c1ccc(CN2CCNc3ncc(-c4ccc(N5CCOCC5)nc4)cc32)o1` [Example 292, 7-(6-Morpholin-4-yl-pyridin-3-yl)-1-[5-(trifluoromethyl)furan-2-ylmethyl]-1,2,3,4-tetrahydropyrido[2,3-b]pyrazine], the values for the 50% inhibitory concentration (IC50) in test [1] and in test [2] were > 100 µM and 1 to 10 µM, respectively.

For `O=C(NCCCN1CCOCC1)c1ccc(-c2cnc3c(c2)N(Cc2ccccc2)C(=O)CN3)cc1` [Example 14, 4-(1-Benzyl-2-oxo-1,2,3,4-tetrahydropyrido[2,3-b]pyrazin-7-yl)-N-(3-morpholin-4-yl-propyl)benzamide, trifluoroacetic acid salt], the IC50 is > 100 µM in test [1] and 10 to 100 µM in test [2].

As to `O=C(c1ccc(-c2cnc3c(c2)N(Cc2ccccc2OC(F)(F)F)CCN3)cc1)N1CCC(N2CCCC2)CC1` [Example 305, (4-Pyrrolidin-1-yl-piperidin-1-yl)-(4-{1-[2-(trifluoromethoxy)benzyl]-1,2,3,4-tetrahydropyrido[2,3-b]pyrazin-7-yl}phenyl)methanone], the IC50 in test [1] was 1 to 10 µM; in test [2], < 0.1 µM.

For the compound `O=C(c1cc(F)ccc1F)N1CCNc2ncc(-c3ccc(C(=O)N4CCC[C@H]4CN4CCCC4)cc3)cc21` [Example 89, (2,5-Difluorophenyl)-{7-[4-((S)-2-[(pyrrolidin-1-yl)methyl]pyrrolidine-1-carbonyl)phenyl]-3,4-dihydro-2H-pyrido[2,3-b]pyrazin-1-yl}-methanone], the IC50 in test [1] and in test [2] was 10 to 100 µM throughout.

`O=C(Cc1ccccc1)N1CCNc2ncc(I)cc21` [Example 110, 1-(7-Iodo-3,4-dihydro-2H-pyrido[2,3-b]pyrazin-1-yl)-2-phenylethanone]: the results for the IC50 in test [1] and in test [2] were 10 to 100 µM and > 100 µM, respectively.

Turning to `CN1CCN(c2ccc(-c3cnc4c(c3)C(Oc3c(F)ccc(F)c3Cl)CCN4)cn2)CC1` (stereo not drawn) [Example 273, 4-(2-Chloro-3,6-difluorophenoxy)-6-[6-(4-methylpiperazin-1-yl)pyridin-3-yl]-1,2,3,4-tetrahydro-[1,8]naphthyridine], the half-inhibitory concentration (IC50) in test [1] and in test [2] was 10 to 100 µM throughout.

Consider `CN1CCN(c2cc(-c3cnc4c(c3)N(Cc3ccc(C(F)(F)F)o3)CCN4)ccn2)CC1` [Example 293, 7-[2-(4-Methylpiperazin-1-yl)pyridin-4-yl]-1-[5-(trifluoromethyl)furan-2-ylmethyl]-1,2,3,4-tetrahydropyrido[2,3-b]pyrazine], for which the IC50 in test [1] and in test [2] was 1 to 10 µM in each case.

Take `CN(C)CCNC(=O)c1cccc(-c2cnc3c(c2)N(Cc2ccccc2)C(=O)CN3)c1` [Example 19, 3-(1-Benzyl-2-oxo-1,2,3,4-tetrahydropyrido[2,3-b]pyrazin-7-yl)-N-(2-dimethylamino-ethyl)benzamide, trifluoroacetic acid salt]: the IC50 in test [1] was in the range of 10 to 100 µM; in test [2], 1 to 10 µM.

Take `CN1CCN(C(=O)c2ccc(-c3cnc4c(c3)C(Oc3cccnc3)CCN4)cc2)CC1` (stereo not drawn) [Example 276, (4-Methylpiperazin-1-yl)-{4-[5-(pyridine-3-yloxy)-5,6,7,8-tetrahydro-[1,8]naphthyridin-3-yl]phenyl}methanone]: the IC50 in test [1] and in test [2] was 10 to 100 µM each time.
